The results in this text go back to patent EP0580968B1, “Vitamin D3 fluorinated analogs” (F. HOFFMANN-LA ROCHE AG, priority 1992, dated 1994).

SMILES strings stand for the structures.

The test system of this assay is HL-60 tumor cell line. Description: HL-60 Differentiation Assay (NBT reduction). It counts as cell-based. Conditions: 4 days incubation; for % Differentiated cells: NBT/TPA. The protocol:
HL-60 Differentiation Assay:
The HL-60 tumor cell line was originally derived from a patient with promyelocytic leukemia. The cells are maintained in suspension and diluted to 200,000 cells/ml in 5 ml of suspension media. Compounds were tested at four concentrations in duplicate flasks. Control flasks were supplemented with vehicle alone at the highest concentration such as 0.1% ethanol. Flasks are incubated upright for 4 days in 5% CO2 at 37°C. On day 4, a 1 ml aliquot of cells was centrifuged, the media removed and the cells resuspended in a 0.2 ml of solution of nitroblue tetrazolium/phorbol 12 myristate 13-acetate (NBT/TPA). The cells are suspended and incubated at 37°C for 30 min. prior to transferring to ice. An aliquot is removed and a total of 200 cells is counted using a hemocytometer. Cells without pigmented granules are judged to be undifferentiated while those containing blue black formazan (indicating conversion of NBT) granules were scored as differentiated. Results are expressed as percent differentiated cells by calculating the ratio of the number of dark cells per total number of cells counted.

As to `CC(CC#CC(O)(C(F)(F)F)C(F)(F)F)C1=CCC2C(=CC=C3CC(O)CC(O)C3)CCCC12C` (stereo not shown) [Compound D, 1,25-dihydroxy-16-ene-23-yne-26,27-hexafluoro-19-nor-cholecalciferol], the EC50 (Homo sapiens, 96 h, HL-60 differentiation, read-out: ED50 (the source's name)) was determined as 0.8 nM. Further, the “% Differentiated cells” value by setting is: (concentration 10^-8 (unit not given)) 89.5%; (concentration 10^-9 (unit not given)) 56.5%; (concentration 10^-10 (unit not given)) 1.5%.
